In patent US20050058745A1, “Use of Labiatae herb preparations for extending the flavor shelf life of malt beverages” (priority 2003, published 2005):

What was measured:
[1] = Dadic 1984; cited from earlier work
[2] = DCIP redox potential of light beer with carnosol; format: physicochemical; settings: for DCIP Redox Potential: 2 to 4° C. for 1 day
Procedure: A 2% solution of carnosol, isolated from sage extract, was prepared by weighing 200 mg pure carnosol and bringing to 10 mL with pure ethanol. Bottles were dosed at 10 and 20 ppm carnosol with our standard bottle addition technique of opening, fobbing to exclude air, and crowning.
Bottles were stored at 2 to 4° C. for 1 day before analysis. Standard DCIP and DPPH measurements were taken.

[3] = Trained panel flavor evaluation, light beer, forced aging; settings: 5 ppm, 6 days 32° C.; for preservation of fresh flavor (words): light beer
Procedure: Separate solution of pure rosmarinic acid, pure carnosol and pure carnosic acid were prepared in ethanol as previously.
The light beer used in this study was approximately one month old and was purchased at a local market. Bottle additions were done as in Example 1.
The bottles were placed in a heated room at 32±1° C. in the dark. After the allotted aging time, the bottles of beer were transferred to a dark refrigerator and stored at approximately 2° to 4° C. until they were analyzed. Additional bottles from the same code were kept unopened in 2° to 4° C. storage. These unopened samples from the same beer code were labeled “Fresh Control” used to provide fresh samples for the trained panel.
At the appropriate times, a trained 7-member panel evaluated the beers. […] Five beers were evaluated at the session—Fresh Control, Aged No Addition, and Aged containing each one of the Labiatae treatments. The overall preference rank, the character and intensity of the aroma, the levels of paper/cardboard aroma and flavor, sour or off flavors, hang and astringency and bitterness quality and intensity were evaluated.

[4] = DPPH number of light beer with carnosol; format: physicochemical; settings: for DPPH No.: 2 to 4° C. for 1 day
Procedure: To perform the test, about 0.04 g of DPPH was weighed to the nearest 0.1 mg in a 100 mL volumetric, recording the exact weight of DPPH. The DPPH was dissolved in methanol and methanol was added to bring the volume to the 100 mL mark. The solution was sonicated to facilitate dissolution. The beers to be measured were opened and 12 mL of each was poured into separate 15 mL centrifuge tubes, making sure that the volumes in all tubes were equal. The analyses were done in triplicate for each beer. An extra beer sample served as a spectrophotometer blank. The beer was degassed by centrifuging it for 15 min at 6,000 rpm. Into each of two 25 mL flasks was pipeted 5 mL of the pH 4.5 water-ethanol buffer. The spectrophotometer wavelength was set to 531 nm and a buffered water blank was zeroed. 1.0 mL of DPPH solution was added to the water buffer, which was swirled at the same time a timer was started. Just before 10 minutes had elapsed, the sample was transferred to a cuvette and the absorbance (ABL) was measured. The analysis was duplicated with another buffer. For accuracy it is necessary that great care be taken to add exactly 1 mL reagent. It is also important to swirl (mix) the samples consistently as the assay is sensitive to oxygen and to the amount of reagent used. Degassed beer was used to obtain a baseline at 531 nm. After centrifugation 5 mL of the beer was transferred into the appropriate labeled 25 mL flask. 1.0 mL of DPPH solution was added, the solution was swirled and the timer was started. The Absorbance (A531) of the beer sample was recorded. This process was repeated for all samples. To eliminate any possible prejudice in order of analysis, samples were analyzed randomly. The following formula was used to calculate the amount of DPPH which reacts with 5 mL of beer: μmol DPPH=((1−A531/ABL)×(g DPPH/394))×10^6
A 2% solution of carnosol, isolated from sage extract, was prepared by weighing 200 mg pure carnosol and bringing to 10 mL with pure ethanol. […]

[5] = Walter et al. 1997; cited from earlier work

COc1ccc(O)c(C(C)(C)C)c1 [BHA]
effectiveness as antioxidant for beer [1]: ineffective

Cc1cc(C(C)(C)C)c(O)c(C(C)(C)C)c1 [BHT]
effectiveness as antioxidant for beer [1]: ineffective

CC(C)c1cc2c(c(O)c1O)[C@@]13CCCC(C)(C)[C@@H]1C[C@@H]2OC3=O [CN, carnosol]
effect on redox potential by DCIP method [2]: does not enhance the redox potential of beer | DCIP Redox Potential ([2]; 10 ppm Carnosol): 19.6 | DCIP Redox Potential ([2]; 20 ppm Carnosol): 19.6 | panelists' preference for treated sample over Aged No Addition sample [3]: 7 of 7 panelists preferred | preservation of fresh flavor (words) [3]: very significantly retards the rate of staling | preservation of fresh flavor (words) ([3]; listed as Carnosol): significant, positive impact on preserving fresh flavor | effect on beer's ability to reduce DPPH [4]: does not enhance a beer's ability to reduce DPPH | DPPH No. ([4]; 10 ppm Carnosol): 33.1 μmol DPPH | DPPH No. ([4]; 20 ppm Carnosol): 37.0 μmol DPPH

O=c1c(O)c(-c2ccc(O)c(O)c2)oc2cc(O)cc(O)c12 [quercitin]
effectiveness in standardized antioxidant assays [5]: ineffective

catechin
effectiveness in standardized antioxidant assays [5]: ineffective
